Measurements published in USRE41149E1, “Optically active pyridonecarboxylic acid derivatives” (Daiichi Sankyo Company, Limited, priority 1988, dated 2010).
≈ marks a conversion by molar mass, not a printed value. Counter-ions that a name gives are not always drawn.

Legend:
E. coli., NIHJ = assay: Antimicrobial activity (MIC), standard method of Nippon Kagakuryoho Gakkai; assay type: cell-based; settings: for MIC: Escherichia coli
Procedure: (§1) Antimicrobial activity of the optically active compounds prepared in Examples was evaluated in accordance with the standard method specified by Nippon […], and results obtained are shown in Table 1 which precedes the claims herein in terms of minimum inhibitory concentration (MIC: […]).

Pr. vulgaris, 08601 = assay: as above; assay type: cell-based; settings: for MIC: Proteus vulgaris
Procedure: as §1

Ps. aeruginosa, 32104 = assay: as above; assay type: cell-based; settings: for MIC: Pseudomonas aeruginosa, 32104, Ps. aeruginosa; for Antimicrobial activity (MIC): Ps. aeruginosa
Procedure: as §1

Ps. aeruginosa, 32121 = assay: as above; assay type: cell-based; settings: for MIC: Pseudomonas aeruginosa, 32121, Ps. aeruginosa; for Antimicrobial activity (MIC): Ps. aeruginosa
Procedure: as §1

S. aureus, 209 P = assay: as above; assay type: cell-based; settings: for MIC: Staphylococcus aureus
Procedure: as §1

S. epidermidis, 56500 = assay: as above; assay type: cell-based; settings: for MIC: Staphylococcus epidermidis, 56500, S. epidermidis; for Antimicrobial activity (MIC): S. epidermidis
Procedure: as §1

Ser. marcescens, 10100 = assay: as above; assay type: cell-based; settings: for MIC: Serratia marcescens, 10100, Ser. marcescens; for Antimicrobial activity (MIC): Ser. marcescens
Procedure: as §1

[1] = tested on: Str. faecalis, ATCC 19433; assay: as above; assay type: cell-based; settings: for MIC: Enterococcus faecalis, ATCC19433, Str. faecalis; for Antimicrobial activity (MIC): Str. faecalis
Procedure: as §1

| Molecule | MIC (E. coli., NIHJ) [µg/mL] | MIC (Pr. vulgaris, 08601) [µg/mL] | MIC (Ps. aeruginosa, 32104) [µg/mL] | MIC (Ps. aeruginosa, 32121) [µg/mL] | MIC (S. aureus, 209 P) [µg/mL] | MIC (S. epidermidis, 56500) [µg/mL] | MIC (Ser. marcescens, 10100) [µg/mL] | MIC [1] [µg/mL] | Antimicrobial activity (MIC) (E. coli., NIHJ) [µg/mL] | Antimicrobial activity (MIC) (Pr. vulgaris, 08601) [µg/mL] | Antimicrobial activity (MIC) (Ps. aeruginosa, 32104) [µg/mL] | Antimicrobial activity (MIC) (Ps. aeruginosa, 32121) [µg/mL] | Antimicrobial activity (MIC) (S. aureus, 209 P) [µg/mL] | Antimicrobial activity (MIC) (S. epidermidis, 56500) [µg/mL] | Antimicrobial activity (MIC) (Ser. marcescens, 10100) [µg/mL] | Antimicrobial activity (MIC) [1] [µg/mL] | melting point [°C] |
| --- | --- | --- | --- | --- | --- | --- | --- | --- | --- | --- | --- | --- | --- | --- | --- | --- | --- |
| Cc1c(N2CC[C@@H]([C@H](C)N)C2)c(F)cc2c(=O)c(C(=O)O)cn(C3CC3F)c12 (single isomer, unassigned; (-)) [Compound 54b, hydrochloride] | < 0.1 | < 0.1 | 0.2 | 0.1 | < 0.1 | < 0.1 | 0.1 | 0.1 | – | – | – | – | – | – | – | – | – |
| N[C@H]1CCN(c2cc3c(cc2F)c(=O)c(C(=O)O)cn3[C@@H]2C[C@@H]2F)C1 (relative stereo) [Compound 9b, 7-[3-(S)-Amino-1-pyrrolidinyl]-6-fluoro-1-(1,2-cis-2-fluorocyclopropyl)-4-oxo-1,4-dihydroquinoline-3-carboxylic acid] | – | – | – | – | – | – | – | – | <0.1 | <0.1 | 0.10 | <0.1 | <0.1 | 0.39 | 0.10 | 0.79 | – |
| CC1(C)CN(c2c(F)cc3c(=O)c(C(=O)O)cn([C@@H]4C[C@@H]4F)c3c2Cl)CC1N (single isomer, unassigned; (-)) [Compound 59b] | < 0.1 | < 0.1 | 0.2 (≈ 0.486 µM) | < 0.1 | < 0.1 | < 0.1 | < 0.1 | 0.1 (≈ 0.243 µM) | – | – | – | – | – | – | – | – | 118 to 121 |
| NC1CN(c2c(F)cc3c(=O)c(C(=O)O)cn([C@@H]4C[C@@H]4F)c3c2Cl)CC12CCC2 (relative stereo) [Compound 58b, (−)-7-(8-amino-6-azaspiro[3.4]octane-6-yl)-8-chloro-6-fluoro-1-(1,2-cis-2-fluoro-1-cyclopropyl)-1,4-dihydro-4-oxoquinoline-3-carboxylic acid] | – | – | – | – | – | – | – | – | <0.1 | <0.1 | 0.10 | <0.1 | <0.1 | <0.1 | <0.1 | <0.1 | – |
| NC1CN(c2c(F)cc3c(=O)c(C(=O)O)cn(C4CC4F)c3c2Cl)CC12CC2 (single isomer, unassigned) [Compound 26ab] | – | – | – | – | – | – | – | – | <0.1 | <0.1 | 0.20 | <0.1 | <0.1 | 0.10 | <0.1 | 0.20 | – |
| C[C@H]1C[C@H](N)CN1c1nc2c(cc1F)c(=O)c(C(=O)O)cn2[C@@H]1C[C@@H]1F (relative stereo) [Compound 31b, 7-[4-(S)-Amino-2-(S)-methyl-1-pyrrolidinyl]-6-fluoro-1-(1,2-cis-2-fluoro-1-cyclopropyl)-4-oxo-1,4-dihydro-1,8-naphthyridine-3-carboxylic acid] | – | – | – | – | – | – | – | – | <0.1 | <0.1 | 0.20 | 0.10 | <0.1 | 0.20 | 0.10 | 0.39 | – |
| (−)-5-Amino-7-[3-(S)-amino-1-pyrrolidinyl]-6,8-difluoro-1-(1,2-cis-2-fluoro-1-cyclopropyl)-4-oxo-1,4-dihydroquinoline-3-carboxylic acid [Compound 18a] | – | – | – | – | – | – | – | – | <0.1 | <0.1 | <0.1 | <0.1 | <0.1 | <0.1 | <0.1 | 0.20 | – |
| N[C@H]1CCN(c2cc3c(cc2F)c(=O)c(C(=O)O)cn3[C@@H]2C[C@@H]2F)C1 (relative stereo) [Compound 9a, 7-[3-(S)-Amino-1-pyrrolidinyl]-6-fluoro-1-(1,2-cis-2-fluorocyclopropyl)-4-oxo-1,4-dihydroquinoline-3-carboxylic acid] | – | – | – | – | – | – | – | – | 0.10 | <0.1 | 0.39 | 0.10 | 0.10 | 0.39 | 0.20 | 1.57 | – |
| NC1CN(c2c(F)cc3c(=O)c(C(=O)O)cn(C4CC4F)c3c2Cl)CC12CC2 (single isomer, unassigned) [Compound 26aa] | – | – | 0.39 (≈ 0.952 µM) | 0.1 (≈ 0.244 µM) | < 0.1 | 0.2 (≈ 0.488 µM) | 0.1 (≈ 0.244 µM) | 0.39 (≈ 0.952 µM) | <0.1 | <0.1 | – | – | – | – | – | – | – |
| (+)-5-Amino-7-[3-(S)-amino-1-pyrrolidinyl]-6,8-difluoro-1-(1,2-cis-2-fluoro-1-cyclopropyl)-4-oxo-1,4-dihydroquinoline-3-carboxylic acid [Compound 18b] | – | – | – | – | – | – | – | – | <0.1 | <0.1 | <0.1 | <0.1 | <0.1 | <0.1 | <0.1 | 0.10 | – |
| NC1CN(c2c(F)cc3c(=O)c(C(=O)O)cn([C@@H]4C[C@@H]4F)c3c2Cl)CC12CC2 (relative stereo) [Compound 26bb, (−)-7-(7-Amino-5-azaspiro[2.4]heptan-5-yl)-8-chloro-6-fluoro-1-(1,2-cis-2-fluoro-1-cylcopropyl)-1,4-dihydro-4-oxoquinoline-3-carboxylic acid] | – | – | – | – | – | – | – | – | <0.1 | <0.1 | <0.1 | <0.1 | <0.1 | <0.1 | <0.1 | 0.20 | – |
| Nc1c(F)c(N2CC(N)C3(CC3)C2)c(F)c2c1c(=O)c(C(=O)O)cn2[C@@H]1C[C@@H]1F (relative stereo) [Compound 56b, 5-Amino-7-(7-amino-5-azaspiro[2,4]heptan-5-yl)-6,8-difluoro-1-(1,2-cis-2-fluoro-1-cyclopropyl) 4-oxo-1,4-dihydroquinoline-3-carboxylic acid] | – | – | – | – | – | – | – | – | <0.1 | <0.1 | <0.1 | <0.1 | <0.1 | <0.1 | <0.1 | 0.10 | – |
| C[C@H](N)[C@@H]1CCN(c2c(F)cc3c(=O)c(C(=O)O)cn(C4CC4F)c3c2Cl)C1 (single isomer, unassigned; (-)) [Compound 34b] | < 0.1 | < 0.1 | 0.1 (≈ 0.243 µM) | < 0.1 | < 0.1 | < 0.1 | < 0.1 | < 0.1 | – | – | – | – | – | – | – | – | 204 to 207 |
| (−)-7-[3-(S)-Amino-1-pyrrolidinyl]-8-chloro-6-fluoro-1-(1,2-cis-2-fluoro-1-cyclopropyl)-4-oxo-1,4-dihydroquinoline-3-carboxylic acid [Compound 13b] | – | – | – | – | – | – | – | – | <0.1 | <0.1 | <0.1 | <0.1 | <0.1 | <0.1 | <0.1 | 0.20 | – |
| NC1CN(c2c(F)cc3c(=O)c(C(=O)O)cn(C4CC4F)c3c2Cl)CC12CC2 (centres unmarked) [Compound 26ba] | < 0.1 | < 0.1 | – | – | – | – | – | – | – | – | 0.20 | 0.10 | <0.1 | 0.20 | <0.1 | 0.39 | – |
| Cc1c(N2CC[C@@H]([C@H](C)N)C2)c(F)cc2c(=O)c(C(=O)O)cn(C3CC3F)c12 (single isomer, unassigned; (-)) (as salt: hydrochloride) [Compound 54b] | – | – | – | – | – | – | – | – | – | – | – | – | – | – | – | – | 149 to 153 |
| (+)-7-[3-(S)-Amino-1-pyrrolidinyl]-8-chloro-6-fluoro-1-(1,2-cis-2-fluoro-1-cyclopropyl)-4-oxo-1,4-dihydroquinoline-3-carboxylic acid [Compound 13a] | – | – | – | – | – | – | – | – | <0.1 | <0.1 | <0.1 | <0.1 | <0.1 | <0.1 | <0.1 | 0.20 | – |
